Here are results for two compounds from patent US11904021B2, “Dual targeting and therapeutic nanoparticle for treating renal fibrosis” (The Chinese University of Hong Kong, priority 2020, dated 2024).

In one series the test system is UUO mice. Briefly: In vivo toxicity test (organ histology, blood biochemistry, hematology). More on the design: species or system Balb/c mice. The note with it: 7 days post-injection, efficacy dose. How it is done:
Liver, heart, and spleen samples were fixed in 10% buffered formalin for 48 h and then stored in PBS at 4° C. Paraffin-embedded tissue sections of 4 μm thick were stained with hematoxylin and eosin for the tissue morphology by light microscopy. Blood, collected via an intracardiac puncture, was stored in a plain tube for biochemistry tests and in EDTA-coated tubes (Becton Dickinson) for hematology analysis. The blood samples were kept on ice and later sent to PathLab (Hong Kong) for analysis on the same day.

For series [1], the system named is α-smooth muscle actin (a-SMA). Nature of the series: Anti-fibrosis efficacy: IHC of α-SMA in UUO kidney. The class given is in vivo, Balb/c mice. The note with it: Day 14 post-UUO surgery. How it is done: (§1) Mouse kidney tissue—Two slides from each kidney were selected for each set of stains such that two section-containing slides were at least 200 μm away from each other. IHC staining was performed on paraffin sections using the microwave-based antigen retrieval technique^32. Tissue sections were deparaffinized and rehydrated to water. After placing the slides in citrate buffer (10 mM citric acid, pH 6.0), the slides were heated in the microwave oven for 3 min under high power (˜95-100° C.) and for 20 more min under low power. After cooling the slides in the heated solution for 30 min, they were rinsed in distilled water twice and in PBS for 5 min. Next, the slides were blocked with 2.5% normal horse serum (Vector Laboratories) for 2 h and incubated with 60 μL of primary antibodies [1 μg/mL for type I collagen (1310-01; Southern BioTech), 0.048 μg/mL for α-SMA (ab150301; Abcam)) 0.625 μg/mL for folate receptor (ab67422; Abcam), 1.25 μg/mL for CD3 (ab16669; Abcam), 1.25 μg/mL for Wnt5b (ab93134; Abcam), and pre-diluted β-catenin (ab15180; Abcam)] at 4° C. overnight. […]
(§2) The major measurable outcome was the expression level of collagen I, as quantified by the percentage area of IHC staining in the kidney sections. […]

The test system of series [2] is UUO mice with established renal fibrosis. Nature of the series: Efficacy study in UUO mice: kidney degeneration (gross appearance, histology, kidney weight, blood creatinine). Particulars: treatment from Day 7, sacrifice Day 14 post-UUO surgery. The class given is in vivo, Balb/c mice. How it is done: Mouse model of renal fibrosis was induced by the UUO surgery as previously described^12,29. Mice were anesthetized by an intraperitoneal injection of ketamine (100 mg/kg; Alfasan International B.V.) and xylazine (10 mg/kg; Alfasan International B.V.). The peritoneum was cut along the midline, and the left ureter was isolated and ligated twice by using a 5-0 suture (NingBo Cheng-He Microsurgical Instruments). The bowel was laid back and the peritoneum was closed with suture. The mice were placed under a heating lamp to maintain body temperature until they recovered from anesthesia. For analgesia, three injections of buprenorphine (Temgesic, 0.05 mg/kg) were given to the mice subcutaneously every 12 h after the surgery. To verify the development of fibrosis, the mice were sacrificed by cervical dislocation with anesthesia, and their kidneys were weighted (see FIG. 4) and processed for histological analysis (see FIGS. 5A-5C).
FA was dissolved in sterile BioPerformance Certified DMSO (Sigma) and formulated in D5W prior to injection. The final concentration of DMSO was less than 1%. Au3-PEG500-FA NPs formulated in D5W was injected i.v. at a dose of 0.12 mg-FA/kg-mouse (or equivalently 2.5 mg-Au/kg-mouse). […]
as §2

In series [3] the test system is type I collagen (gene ID: Col1a1). Nature of the series: Transcriptomic analysis (RNA-seq) of UUO kidneys. The class given is in vivo, Balb/c mice. Particulars: UUO kidney, 48 h post-injection, individual replicates 1-3. As to the method: UUO mice were i.v. injected with Au3-PEG500-FA NPs (i.e., […]) or free (i.e., 0.12 mg-FA/kg-mouse) on Day 7 after UUO surgery, at the same dosage used for the efficacy studies. An untreated group of UUO mice was also included as control. On Day 9 after UUO surgery (i.e., 48 h post-injection), the mice were sacrificed and the UUO kidneys were harvested. After cutting the UUO kidneys in half using a scalpel, one set of the halved kidneys was fixed in buffered formalin while the other set was snap frozen in liquid nitrogen and stored at −80° C. The formalin-fixed samples were dehydrated as mentioned above and embedded in paraffin blocks to generate tissue sections for validating the RNA-seq data. The frozen samples were sent to Beijing Genomics Institute (BGI) for RNA extraction, RNA library construction, and bioinformatic analysis. A total of 9 samples were sequenced using the BGISEQ platform, with ˜4.57 Gb generated per sample. The average mapping ratio with reference genome is 94.33%. Differential expressed genes (DEGs) detection, gene ontology analysis of DEG, and other analysis based on gene expression were performed by BGI. Further analysis of the DEGs was performed by filtering the list of DEGs with a FPKM threshold of 2 for at least 6 out of the 9 UUO samples tested.
Animals were sacrificed on Day 9. […]

The next series has as its system type I collagen. Briefly: Anti-fibrosis efficacy: IHC of type I collagen in UUO kidney. The class given is in vivo, Balb/c mice. Particulars: for fractional area of type I collagen in UUO kidney: Day 14 post-UUO surgery (7 days post injection). As to the method: Mouse kidney tissue—Two slides from each kidney were selected for each set of stains such that two section-containing slides were at least 200 μm away from each other. IHC staining was performed on paraffin sections using the microwave-based antigen retrieval technique^32. Tissue sections were deparaffinized and rehydrated to water. After placing the slides in citrate buffer (10 mM citric acid, pH 6.0), the slides were heated in the microwave oven for 3 min under high power (˜95-100° C.) and for 20 more min under low power. After cooling the slides in the heated solution for 30 min, they were rinsed in distilled water twice and in PBS for 5 min. Next, the slides were blocked with 2.5% normal horse serum (Vector Laboratories) for 2 h and incubated with 60 μL of primary antibodies [1 μg/mL for type I collagen (1310-01; Southern BioTech), 0.048 μg/mL for α-SMA (ab150301; Abcam)) 0.625 μg/mL for folate receptor (ab67422; Abcam), 1.25 μg/mL for CD3 (ab16669; Abcam), 1.25 μg/mL for Wnt5b (ab93134; Abcam), and pre-diluted β-catenin (ab15180; Abcam)] at 4° C. overnight. Slides were then washed in PBS and treated with 3% H2O2 (Merck Millipore) for 30 min, rinsed again, and incubated with ˜50 μL of secondary antibodies (ImmPRESS HRP Polymer detection Kit, Vector Laboratories) for 30 min. The sections were developed sequentially by using 3,3′-diaminobenzidine (DAB) enzyme substrate (ImmPACT™ DAB, Vector Laboratories) for 2 min. All slides were counter-stained with Mayer's hematoxylin for 3 min, washed in distilled water, dried in 90% ethanol, and mounted by using xylene-based mounting medium. Bright-field images were acquired using the Nikon Eclipse Ni (DS-Ri2) microscope.
FA was dissolved in sterile BioPerformance Certified DMSO (Sigma) and formulated in D5W prior to injection. The final concentration of DMSO was less than 1%. […]
as §2

In another series the test system is CD3+ T cells. Briefly: Anti-fibrosis efficacy: IHC of CD3+ T cell infiltration in UUO kidney. The class given is in vivo, Balb/c mice. Particulars: Day 14 post-UUO surgery. How it is done:
as §1, §2

For series [4] the following is noted: neutral conditions, literature ref 45; cited from earlier work.

Where “and” joins values, the source holds several entries; their conditions need not be identical. Identical values can stand only once. Entries after “also recorded” stand apart in the source; their conditions may differ.

As for `Nc1nc2ncc(CNc3ccc(C(=O)N[C@@H](CCC(=O)O)C(=O)O)cc3)nc2c(=O)[nH]1` [free FA, folic acid], in the series on UUO mice, the “histological examination of liver, heart, and spleen” value is on record as “did not observe noticeable toxicity”. Besides, the “area with positive α-SMA in the UUO kidney” value in series [1] worked out at 10.7%. Further, in series [2], the “gross tissue degeneration of UUO kidney” value is reported as “rescued the UUO kidney from tissue degeneration; also recorded: did not degenerate”. Moreover, the “Expression level (FPKM) for type I collagen” value in series [3] was 185.4 FPKM and 80.71 FPKM and 18.57 FPKM. The “type I collagen protein expression in UUO kidney versus saline group” value in the series with type I collagen (48 h post-injection (Day 9)) is “lower type I collagen protein expression than the saline group”. In addition, the “fractional area of type I collagen in UUO kidney” value in the series with type I collagen was 11.2%. For the same compound, in the series on CD3+ T cells, the “mean population of CD3+ T cells” value was found to be 13 cells/frame. Moreover, in series [4], the solubility in water result is “poorly soluble in water”.
For `C[C@H](CS)C(=O)N1CCC[C@H]1C(=O)O` [Captopril], in the series with UUO mice, the “histological examination of liver, heart, and spleen” value was “did not observe noticeable toxicity”. Besides, the “area with positive α-SMA in the UUO kidney” value in series [1] stood at 12.5%. Also, the “fractional area of type I collagen in UUO kidney” value in the series with type I collagen was determined as 13.5%.
